Assay results published in ChEMBL document CHEMBL3774317, “Design and synthesis of novel tamoxifen analogues that avoid CYP2D6 metabolism” (Eur J Med Chem, 2016).
pIC50: −log10 of the molar value.

How the values were obtained:
[1] = Cytotoxicity against human DU145 cells assessed as growth inhibition after 48 hrs by SRB assay; type: functional; settings: DU-145, 48 h
CCRF-CEM = experiment: Cytotoxicity against human CCRF-CEM cells assessed as growth inhibition after 48 hrs by SRB assay; type: functional
786-0 = experiment: Cytotoxicity against human 786-0 cells assessed as growth inhibition after 48 hrs by SRB assay; type: functional; settings: 786-0, 48 h
NCI-H522 = experiment: Cytotoxicity against human NCI-H522 cells assessed as growth inhibition after 48 hrs by SRB assay; type: functional; settings: NCI-H522, 48 h
SR = experiment: Cytotoxicity against human SR cells assessed as growth inhibition after 48 hrs by SRB assay; type: functional
SK-MEL-2 = experiment: Cytotoxicity against human SK-MEL-2 cells assessed as growth inhibition after 48 hrs by SRB assay; type: functional; settings: SK-MEL-2, 48 h
[2] = Cytotoxicity against human LOXIMVI cells assessed as growth inhibition after 48 hrs by SRB assay; type: functional; settings: LOX IMVI
[3] = Cytotoxicity against human OVCAR8 cells assessed as growth inhibition after 48 hrs by SRB assay; type: functional; settings: OVCAR-8, 48 h
MCF7 = experiment: Antiproliferative activity against human MCF7 cells after 72 hrs by MTT assay; settings: mcf7
[4] = Cytotoxicity against human HL-60(TB) cells assessed as growth inhibition after 48 hrs by SRB assay; type: functional; settings: HL-60, 48 h
MDA-MB-231 = experiment: Cytotoxicity against human MDA-MB-231 cells assessed as growth inhibition after 48 hrs by SRB assay; type: functional; settings: MDA-MB-231, 48 h
NCI-H322M = experiment: Cytotoxicity against human NCI-H322M cells assessed as growth inhibition after 48 hrs by SRB assay; type: functional
A498 = experiment: Cytotoxicity against human A498 cells assessed as growth inhibition after 48 hrs by SRB assay; type: functional; settings: A498, 48 h
[5] = Cytotoxicity against human PC3 cells assessed as growth inhibition after 48 hrs by SRB assay; type: functional; settings: PC-3, 48 h
M14 = experiment: Cytotoxicity against human M14 cells assessed as growth inhibition after 48 hrs by SRB assay; type: functional; settings: M14, 48 h
[6] = Cytotoxicity against human SNB19 cells assessed as growth inhibition after 48 hrs by SRB assay; type: functional; settings: SNB-19, 48 h
SK-MEL-28 = experiment: Cytotoxicity against human SK-MEL-28 cells assessed as growth inhibition after 48 hrs by SRB assay; type: functional; settings: SK-MEL-28, 48 h
MDA-MB-468 = experiment: Cytotoxicity against human MDA-MB-468 cells assessed as growth inhibition after 48 hrs by SRB assay; type: functional; settings: MDA-MB-468, 48 h
[7] = Cytotoxicity against human OVCAR4 cells assessed as growth inhibition after 48 hrs by SRB assay; type: functional; settings: OVCAR-4, 48 h
[8] = Cytotoxicity against human SF295 cells assessed as growth inhibition after 48 hrs by SRB assay; type: functional; settings: SF-295, 48 h
[9] = Cytotoxicity against human SKOV3 cells assessed as growth inhibition after 48 hrs by SRB assay; type: functional; settings: SK-OV-3, 48 h
[10] = Cytotoxicity against human HCT15 cells assessed as growth inhibition after 48 hrs by SRB assay; type: functional; settings: HCT-15, 48 h
[11] = Cytotoxicity against human OVCAR5 cells assessed as growth inhibition after 48 hrs by SRB assay; type: functional; settings: OVCAR-5, 48 h
[12] = Cytotoxicity against human IGROV1 cells assessed as growth inhibition after 48 hrs by SRB assay; type: functional; settings: IGROV-1, 48 h
MDA-MB-435 = experiment: Cytotoxicity against human MDA-MB-435 cells assessed as growth inhibition after 48 hrs by SRB assay; type: functional; settings: MDA-MB-435, 48 h
Estrogen receptor = biological target: T1, Estrogen receptor (Homo sapiens, UniProt P03372)
T1 sequence (P03372 whole entry): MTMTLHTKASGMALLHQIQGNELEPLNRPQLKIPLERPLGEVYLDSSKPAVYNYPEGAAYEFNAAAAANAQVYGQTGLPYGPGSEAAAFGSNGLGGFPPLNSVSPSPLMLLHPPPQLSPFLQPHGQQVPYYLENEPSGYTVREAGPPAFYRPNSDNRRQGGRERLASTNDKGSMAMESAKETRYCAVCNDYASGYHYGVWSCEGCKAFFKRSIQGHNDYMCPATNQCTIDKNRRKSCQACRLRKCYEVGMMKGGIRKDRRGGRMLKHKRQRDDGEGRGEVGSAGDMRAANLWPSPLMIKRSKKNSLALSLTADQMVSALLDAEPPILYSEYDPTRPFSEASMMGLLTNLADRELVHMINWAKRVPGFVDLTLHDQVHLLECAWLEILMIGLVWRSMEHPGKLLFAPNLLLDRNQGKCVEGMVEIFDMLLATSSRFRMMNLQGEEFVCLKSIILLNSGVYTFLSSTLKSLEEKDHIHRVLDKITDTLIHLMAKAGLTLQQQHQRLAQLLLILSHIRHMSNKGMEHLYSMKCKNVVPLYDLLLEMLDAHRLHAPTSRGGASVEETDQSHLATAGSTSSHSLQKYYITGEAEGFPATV
Description: Displacement of [3H]-E2 from human ER-alpha incubated for 16 to 20 hrs by liquid scintillation counting analysis

[13] = Cytotoxicity against human COLO205 cells assessed as growth inhibition after 48 hrs by SRB assay; type: functional; settings: COLO 205, 48 h
[14] = read-out: LC50 (the source's name)

CCCCCCCCCC(=O)Oc1ccc(/C(=C(/C)c2ccccc2)c2ccc(OCCN3CCCC3)cc2)cc1
GI50 [1]: 8 µM
LC50 [1]: 27.5 µM
TGI [1]: 14.8 µM
GI50 (CCRF-CEM): 9.51 µM
TGI (CCRF-CEM): 22.3 µM
CC50 (CCRF-CEM; [14]): 50 µM
GI50 (786-0): 8.77 µM
TGI (786-0): 16.8 µM
CC50 (786-0; [14]): 32.2 µM
GI50 (NCI-H522): 9.36 µM
TGI (NCI-H522): 18.4 µM
CC50 (NCI-H522; [14]): 36.3 µM
GI50 (SR): 9.08 µM
TGI (SR): 19 µM
CC50 (SR; [14]): 39.7 µM
GI50 (SK-MEL-2): 9.49 µM
TGI (SK-MEL-2): 18.1 µM
CC50 (SK-MEL-2; [14]): 34.4 µM
GI50 [2]: 8.02 µM
LC50 (concentration killing 50% of cells) [2]: 27.2 µM
TGI [2]: 14.8 µM
GI50 [3]: 9.78 µM
TGI [3]: 20.8 µM
CC50 [3, 14]: 44.2 µM
pIC50 (MCF7): > 6.00
GI50 [4]: 9.24 µM
TGI [4]: 18.7 µM
CC50 [4, 14]: 37.8 µM
GI50 (MDA-MB-231): 1.02 µM
LC50 (MDA-MB-231): 39.9 µM
TGI (MDA-MB-231): 20.2 µM
GI50 (NCI-H322M): 8.04 µM
TGI (NCI-H322M): 15.7 µM
CC50 (NCI-H322M; [14]): 30.7 µM
LC50 (A498): 29.4 µM
TGI (A498): 13.5 µM
GI50 [5]: 8.28 µM
LC50 [5]: 30 µM
TGI [5]: 15.7 µM
TGI (M14): 16.5 µM
CC50 (M14; [14]): 32.8 µM
GI50 [6]: 9.04 µM
TGI [6]: 17.7 µM
CC50 [6, 14]: 34.7 µM
LC50 (concentration killing 50% of starting cells) (SK-MEL-28): 28.6 µM
TGI (SK-MEL-28): 15.3 µM
GI50 (MDA-MB-468): 7.26 µM
TGI (MDA-MB-468): 14.7 µM
CC50 (MDA-MB-468; [14]): 29.7 µM
GI50 [7]: 7.39 µM
LC50 [7]: 29.9 µM
TGI [7]: 14.9 µM
GI50 [8]: 7.93 µM
LC50 (concentration killing 50% of cells) [8]: 28.6 µM
TGI [8]: 15.1 µM
GI50 [9]: 7.36 µM
TGI [9]: 14.8 µM
CC50 [9, 14]: 29.6 µM
GI50 [10]: 6.69 µM
LC50 (concentration killing 50% of cells) [10]: 25.6 µM
TGI [10]: 13.1 µM
GI50 [11]: 8.56 µM
LC50 (concentration killing 50% of cells) [11]: 31.8 µM
TGI [11]: 16.5 µM
GI50 [12]: 8.87 µM
TGI [12]: 19.5 µM
CC50 [12, 14]: 43.7 µM
GI50 (MDA-MB-435): 7.47 µM
TGI (MDA-MB-435): 14.1 µM
CC50 (MDA-MB-435; [14]): 26.5 µM
pIC50 (Estrogen receptor): 7.32
TGI [13]: 14.7 µM
CC50 [13, 14]: 29.1 µM
